Assay results: patent publication US7553816B2, “p-amidobenzylethers in drug delivery agents” (priority 2001, dated 2009)
“And” between values parts separate entries of the source, which are not always exact repeats. Equal values may be shown once. Read-outs that look alike come from different tables or passages of the source.

Assays:
[1] = tested on: cathepsin B; details: cited from earlier work
[2] = Stability studies in PBS pH 7.2 or acetate buffer pH 5.1 at 37° C., HPLC; assay type: physicochemical; details: for Stability pH 5.1, loss of starting material: acetate buffer pH 5.1, 37° C.; for Stability pH 5.1, loss of starting material / Stability pH 7.2, loss of starting material: 7 days; for Stability at pH 5.1 (in words): pH 5.1, 37° C.; for Stability at pH 5.1 (in words) / Stability at pH 7.2 (in words): absence of added enzyme; for Stability at pH 7.2 (in words): pH 7.2, 37° C.; for Stability pH 7.2, loss of starting material: phosphate buffered saline pH 7.2, 37° C.
Procedure: The other samples were injected directly into the HPLC.

[3] = molecular target: T1, Bovine spleen cathepsin B (Bos taurus, UniProt P07688); assay type: biochemical; details: for Products released upon treatment with cathepsin B: HPLC analysis
T1 construct: Bovine spleen cathepsin B (Sigma-Aldrich); purchased Sigma-Aldrich; host or cells: bovine spleen (tissue-derived)
Procedure: Bovine spleen cathepsin B (Sigma-Aldrich), dissolved in phosphate buffered saline (pH 7.2, 1 mg/mL final concentration), was activated as previously described (Bajkowski, A. S.; Frankfater, A. Specific Spectrophotometric Assays for Cathepsin B. Anal. Biochem. 1975, 68, 119-127). […] In the case of the naphthol ether 2, a 5.0 mM solution in MeOH was diluted to a final concentration of 0.22 mM. Periodically, aliquots were taken, quenched with an equal volume of MeCN, centrifuged, and 100 μL injections analyzed by HPLC (4.6 mm×15 cm C18 column) with detection between 210 and 400 nm. […] The gradient elution was 90% to 10% A over 10 min, followed by 5 min at 10% A, and the flow rate was 1.0 mL/min. The disappearance of substrate and the appearances of released alcohol and Cbz-val-cit were recorded. Cathepsin B hydrolysis rates were calculated according to the disappearance of substrate (Table 7).

[4] = pooled human serum, 37° C.; for Stability Human serum, loss of starting material: 7 days
Procedure: Solutions of the substrates (0.08-0.14 mM in DMSO, and 0.22 mM in MeOH for 2) were diluted 10-20-fold in PBS, acetate buffer (25 mM, pH 5.1), or pooled human serum, and incubation was carried out at 37° C. For the serum studies, equal volumes of MeCN were added and the samples were centrifuged prior to HPLC analysis. The other samples were injected directly into the HPLC.

[5] = tested on: WM266/4 human melanoma cells; details: 24 h exposure, 48 h further, range stated for all three cell lines
Procedure: (§1) FIG. 1 is a graph showing the cytotoxic effects on L2987 human lung adenocarcinoma (A and D), WM266/4 (B), and IGR-39 (C) human melanoma cell lines. The cells were exposed to various concentrations of the drugs for 24 h, washed, incubated for a further 48 h, and the cytotoxic activities were quantified through the incorporation of [^3H] thymidine relative to untreated control cells.
(§2) The cell lines (L2987 human lung adenocarcinoma, WM266/4 and IGR-39 human melanomas) were exposed to the agents for 24 h, washed, and viability was determined two days later by measuring the incorporation of ^3H-thymidine compared to the untreated controls.
(§3) L2987 human lung adenocarcinoma cells were obtained as previously described (Svensson, H. P.; Vrudhula, V. M.; Emsweiler, J. E.; MacMaster, J. F.; Cosand, W. L.; Senter, P. D.; Wallace, P. M. In Vitro and In Vivo Activities of a Doxorubicin Prodrug in Combination with Monoclonal Antibody β-Lactamase Conjugates. Cancer Res. 1995, 55, 2357-2365). WM266/4 and IGR-39 human melanoma cells were obtained from ATCC (Manassas, Va.) and DSMZ (Braunschweig, Germany), respectively. L2987 and WM266/4 cells were grown in Roswell Park Memorial Institute (RPMI) medium containing 10% fetal bovine serum and 10U/mL penicillin G and 10 μg/mL streptomycin sulfate. […] Incorporation of label was measured using a β-counter.

[6] = tested on: IGR-39 human melanoma cells; details: 24 h exposure, 48 h further, range stated for all three cell lines
Procedure: as §1, §2, §3

[7] = tested on: L2987 human lung adenocarcinoma cells; test: In vitro cytotoxicity assay, [3H] thymidine incorporation; assay type: cell-based
Procedure: as §1, §2
L2987 human lung adenocarcinoma cells were obtained as previously described (Svensson, H. P.; Vrudhula, V. M.; Emsweiler, J. E.; MacMaster, J. F.; Cosand, W. L.; Senter, P. D.; Wallace, P. M. In Vitro and In Vivo Activities of a Doxorubicin Prodrug in Combination with Monoclonal Antibody β-Lactamase Conjugates. Cancer Res. 1995, 55, 2357-2365). WM266/4 and IGR-39 human melanoma cells were obtained from ATCC (Manassas, Va.) and DSMZ (Braunschweig, Germany), respectively. L2987 and WM266/4 cells were grown in Roswell Park Memorial Institute (RPMI) medium containing 10% fetal bovine serum and 10U/mL penicillin G and 10 μg/mL streptomycin sulfate. Dulbecco's modified Eagle's medium was used in place of RPMI for the IGR-39 cells. The cells (2,500 cells in 0.1 mL medium) were plated into 96-well plates, and after 24 h at 37° C., various concentrations of the drugs in medium (50 μL) were added in triplicate. Incubation was continued for an additional 24 h, the cultures were washed, and fresh medium (0.15 mL) was added. After 48 h at 37° C., [^3H] thymidine (25 μL, 0.5 μCi/well) was added, and the cultures were frozen and harvested 4 h later. Incorporation of label was measured using a β-counter.

[8] = loss of starting material at 37° C. in pH 5.1 acetate buffer

Compound	Stability pH 5.1, loss of starting material [2]	Stability at pH 5.1 (in words) [2]	Stability at pH 7.2 (in words) [2]	Stability pH 7.2, loss of starting material [2]	Products released upon treatment with cathepsin B [3]	Specific activity of cathepsin B [3, 8] [nmol/ nmol/min/mg]	also measured
COc1cccc2c1C(=O)c1c(O)c3c(c(O)c1C2=O)CC(O)(C(=O)CO)CC3OC1CC(NC(=O)OCc2ccc(NC(=O)C(CCCNC(N)=O)NC(=O)C(NC(=O)OCc3ccccc3)C(C)C)cc2)C(O)C(C)O1 (stereo not shown) [Cbz-val-cit-PAB-doxorubicin carbamate]							Release of drug upon treatment with cathepsin B [1]: released active doxorubicin
CC(C)[C@H](NC(=O)OCc1ccccc1)C(=O)N[C@@H](CCCNC(N)=O)C(=O)Nc1ccc(COc2cccc3ccccc23)cc1 [Compound 2, CBZ-VAL-CIT-PAB-1-O-NAPHTHOL]	0% loss, 7 days	no breakdown	no breakdown	0% loss, 7 days	the products formed were naphthol and Cbz-val-cit-COOH		Specific activity of cathepsin B ([3]; pH 5.1): 350 nmol/min/mg and 350 nmol/ nmol/min/mg; Stability in human serum (in words) [4]: no breakdown; Stability Human serum, loss of starting material [4]: 0% loss, 7 days
COc1cc([C@@H]2c3cc4c(cc3[C@@H](O[C@@H]3O[C@@H]5CO[C@@H](C)O[C@H]5[C@H](O)[C@H]3O)[C@H]3COC(=O)[C@H]23)OCO4)cc(OC)c1OCc1ccc(NC(=O)[C@H](CCCNC(N)=O)NC(=O)[C@@H](NC(=O)OCc2ccccc2)C(C)C)cc1 [Compound 6, CBZ-VAL-CIT-PAB-O-ETOPOSIDE]	0% loss, 7 days	stable	stable	0% loss, 7 days	release of etoposide (VIIIa)	160	Cytotoxic activity, times etoposide (VIIIa) more active than 6 [5]: 15-22 times; Cytotoxic activity, times etoposide (VIIIa) more active than 6 [6]: 15-22 times; Cytotoxic activity, times etoposide (VIIIa) more active than 6 ([7]; L2987, 24 h exposure, 48 h further, range stated for all three cell lines): 15-22 times
COc1ccc(/C=C\c2cc(OC)c(OC)c(OC)c2)cc1OCc1ccc(NC(=O)[C@H](CCCNC(N)=O)NC(=O)[C@@H](NC(=O)OCc2ccccc2)C(C)C)cc1 [Compound 7, CBZ-VAL-CIT-PAB-3′-O-COMBRETASTATIN A-4]	0% loss, 7 days	stable	stable	0% loss, 7 days	combretastatin A-4 (VIIIb)	61	Stability in human serum (in words) [4]: stable; Stability Human serum, loss of starting material [4]: 0% loss, 7 days; Factor less potent than combretastatin A-4 (VIIIb) ([7]; L2987 human lung adenocarcinoma cells (FIG. 1D)): 13
COc1ccc(/C=C\c2cc(OC)c(OC)c(OC)c2)cc1OC(=O)OCc1ccc(NC(=O)[C@H](CCCNC(N)=O)NC(=O)[C@@H](NC(=O)OCc2ccccc2)C(C)C)cc1 [Compound 11, CBZ-VAL-CIT-PAB-OCO-COMBRETASTATIN A-4]					VIIIb	32	Stability in aqueous environments (in words) ([2]; aqueous environments): unstable; Cytotoxicity compared with combretastatin A-4 (VIIIb), in words ([7]; FIG. 1D): as cytotoxic as combretastatin A-4 (VIIIb)
CBZ-VAL-CIT-PAB-O-(N-AC)-NOR [Compound 5]	0% loss 7 d			0% loss 7 d	no N-acetylnorephedrine was detected	145	
CBZ-VAL-CIT-PAB-OCO-(1S, 2R)-(N-ACETYL)NOREPHEDRINE [Compound 10]					formation of 4	150	
